In article PMC5537068, “Endoglucanase activity at a second site in Pyrococcus furiosus triosephosphate isomerase—Promiscuity or compensation for a metabolic handicap?” (FEBS Open Bio, 2017):
pKd: −log10 of the molar value.

Columns and labels:
[1] = target: T1, PfuTIM (Pyrococcus furiosus, UniProt P62002); test: inhibition of cellobioside-resorufin hydrolysis, absorbance at […] nm; format: biochemical; details: enzyme 2 μM; cellobioside-resorufin 100 μM; norharman 25 μM; endoglucanase activity; headed as competitive
T1 construct: gene tpiA; full-length, 6xHis tag from pQE30 (BamHI/HindIII), tag kept; E. coli M15[pREP4]; IMAC and gel filtration; monomer ~25 kDa; octamer in Tris, hexamer in phosphate
T1 sequence (P62002 whole entry): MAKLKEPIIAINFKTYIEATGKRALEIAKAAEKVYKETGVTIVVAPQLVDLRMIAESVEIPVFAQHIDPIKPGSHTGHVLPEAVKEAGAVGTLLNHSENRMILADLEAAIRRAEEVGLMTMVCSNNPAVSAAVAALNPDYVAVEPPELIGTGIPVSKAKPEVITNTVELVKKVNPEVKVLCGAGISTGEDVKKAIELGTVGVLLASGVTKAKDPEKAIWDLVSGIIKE

[2] = target: T1, PfuTIM; test: intrinsic tryptophan fluorescence quenching, hyperbolic fit; format: binding
[3] = target: T2, PfuTIM (Pyrococcus furiosus, UniProt P62002, E144G); test: resorufin release, absorbance at […] nm; format: biochemical; details: 37 °C, overnight incubation
T2 construct: gene tpiA; full-length, 6xHis tag from pQE30 (BamHI/HindIII), tag kept; E. coli M15[pREP4]; IMAC and gel filtration; monomer ~25 kDa; octamer in Tris, hexamer in phosphate
T2 sequence (P62002 whole entry E144G): as the sequence (P62002 whole entry) above, with E144G counted along it

[4] = target: T1, PfuTIM; test: resorufin release, absorbance at […] nm; format: biochemical; details: pH 6.0, 35 °C; phosphate-purified enzyme 2 μM; substrate 2.5-250 μM; promiscuous endoglucanase activity, second site

c1ccc2c(c1)[nH]c1cnccc12 [norharman]
complete inhibition at 25 μM [1]: With norharman, complete inhibition of endoglucanase/cellulase activity is seen | pKd [2]: ~4.08

O=c1ccc2nc3ccc(O[C@@H]4O[C@H](CO)[C@@H](O[C@@H]5O[C@H](CO)[C@@H](O)[C@H](O)[C@H]5O)[C@H](O)[C@H]4O)cc3oc-2c1 [cellobioside–resorufin]
% of wild-type activity [3]: percentages of activity with respect to the wild‐type protein are plotted, for assays with cellobioside–resorufin | Km [4]: ~ 53.62 ± 4.05 μM
